According to patent US20110243846A1, “BENZOTHIAZOLE AMIDES FOR DETECTION OF AMYLOID BETA” (priority 2008, published 2011):

Tested on: Aβ plaques in cortex sections of Alzheimer's disease patients
Test: Autoradiographical analysis of binding to human brain sections
Details: F-18 labelled compound; for Autoradiographical analysis of binding to cryosections from cortex: cryosections from cortex of AD patients vs controls without Aβ plaques (HC/FTD)
From the text: Fresh frozen as well as paraffin embedded sections of the frontal lobe from Alzheimer's dementia patients, frontotemporal dementia patients and age matched controls were used for the study. Frozen sections, sliced at 18 μm thickness on a cryostate (Leica, Germany) and paraffin sections, sliced on a sliding microtom (Leica) at a thickness of 6 μm, were mounted onto glass slides (Superfrost Plus, Fa.Menzel, Braunschweig Germany). Frozen sections were allowed to adhere to the slides for several nights at −20° C. The paraffin sections were deparaffinized using routine histological methods. For binding studies sections were incubated with the F-18 labeled test compound at 10 Bq/μl diluted in 25 mM Hepes buffer, pH 7.4, 0.1% (BSA) (200-300 μl/slide) for 1.5 hour at room temperature in a humidified chamber. For blocking experiments a 1000-fold access of the unlabeled test substance was added to the incubation mixture. After hybridization, sections were washed four times with Hepes buffer, 0.1% BSA (or alternatively two times with 40% ethanol) and finally dipped two times into dest. water for 10 sec. The air-dried sections were exposed to imaging plates and signals were detected by a phosphoimager device (Fuji BAS5000).

COc1ccc2nc(NC(=O)c3ccc([18F])cc3)sc2c1 [compound 1f, 4-(^18F)fluoro-N-(6-methoxy-1,3-benzothiazol-2-yl)benzamide]
Autoradiographical analysis of binding to cryosections from cortex: Specific binding in plaque-rich regions of AD samples

COc1ccc2nc(NC(=O)c3cccc([18F])n3)sc2c1 [compound 3c, 6-[^18F]-fluoro-N-(6-methoxy-1,3-benzothiazol-2-yl)pyridine-2-carboxamide]
Autoradiographical analysis of binding to paraffine-sections from cortex (paraffine-sections from cortex of AD patients vs controls without Aβ plaques (HC/FTD)): Specific binding in plaque-rich regions of AD samples

COc1ccc2nc(NC(=O)c3cc([18F])ccn3)sc2c1 [compound 2c, 4-(^18F)fluoro-N-(6-methoxy-1,3-benzothiazol-2-yl)pyridine-2-carboxamide]
Autoradiographical analysis of binding to cryosections from cortex: Specific binding in plaque-rich regions of AD samples
